This passage reports Grooming score, ID₅₀ and IC50 results from EP0339193A1, “Peptide ligands for bombesin receptors” (FARMITALIA CARLO ERBA S.r.l., priority 1988, dated 1989).

Counter-ions that a name gives are not always drawn. Numbered stars: 1 amine (or outer) side, 2 acyl side, 3 side chain; on linkers, the order of the positions; unused ones are H or OH. Square brackets hold non-standard residues; d marks the D form. Ends that are not written are not given here. Peptide text beside a SMILES is read from it. * marks the point of attachment. His(Dnp) = O=C([C@H](Cc1cn(-c2ccc([N+](=O)[O-])cc2[N+](=O)[O-])cn1)N[*:1])[*:2]; Dnp = O=[N+]([O-])c1ccc(*)c([N+](=O)[O-])c1; Boc = CC(C)(C)OC(=O)*; NHPentyl = CCCCCN*

The subject of one assay is rat grooming behaviour stimulated by bombesin. Description: Grooming behaviour in the rat after i.c.v. administration (inhibition of bombesin-stimulated grooming). It is filed as in vivo. As to conditions: BBS 0.01 µg/rat + XXI 10 µg/rat in combination. The source says:
The antagonistic activity has been evaluated both in vitro and in vivo; in vitro, as inhibition of the bombesin-induced DNA synthesis in Swiss 3T3 cells (A.N. Corps et al. (1985) Biochem. J., 231, 781-785) (Table 2) and rat urinary bladder contraction (M. Broccardo et al. (1975) Br. J.Pharmac., 55, 221-227) (Table 3); in vivo, by i.c.v. administration, as inhibition of the rat grooming behaviour stimulated by bombesin (A. Cowan et al. (1985) Life Sciences, 37, 135-145) (Table 4).
In the case of `CSCC[C@H](NC(=O)[C@@H](CC(C)C)NC(=O)[C@H](Cc1c[nH]cn1)NC(=O)CNC(=O)[C@@H](NC(=O)[C@H](C)NC(=O)[C@H](Cc1c[nH]c2ccccc12)NC(=O)[C@H](CCC(N)=O)NC(=O)[C@@H](N)[C@@H](C)O)C(C)C)C(N)=O` [XXI, H-Thr-Gln-Trp-Ala-Val-Gly-His-leu-Met-NH₂.CF₃COOH], the Grooming score is 35.

Staying with this assay, now noted: BBS 0.01 µg/rat alone.
For “Glp-Gln-Arg-Leu-Gly-Asn-Gln-Trp-Ala-Val-Gly-His-Leu-Met-NH₂ [BBS, reference compound]”, the Grooming score is given as 55.

The same assay, now with this note: peptide XXI 10 µg/rat alone.
`CSCC[C@H](NC(=O)[C@@H](CC(C)C)NC(=O)[C@H](Cc1c[nH]cn1)NC(=O)CNC(=O)[C@@H](NC(=O)[C@H](C)NC(=O)[C@H](Cc1c[nH]c2ccccc12)NC(=O)[C@H](CCC(N)=O)NC(=O)[C@@H](N)[C@@H](C)O)C(C)C)C(N)=O` [XXI, H-Thr-Gln-Trp-Ala-Val-Gly-His-leu-Met-NH₂.CF₃COOH]: the Grooming score was found to be 15.

The target in the next assay is T1, bombesin receptors (Mus musculus, UniProt P21729).
T1 construct: has been determined on Swiss 3T3 fibroblasts; endogenous in cells; host or cells: mouse Swiss 3T3 fibroblasts
T1 sequence (P21729 whole entry): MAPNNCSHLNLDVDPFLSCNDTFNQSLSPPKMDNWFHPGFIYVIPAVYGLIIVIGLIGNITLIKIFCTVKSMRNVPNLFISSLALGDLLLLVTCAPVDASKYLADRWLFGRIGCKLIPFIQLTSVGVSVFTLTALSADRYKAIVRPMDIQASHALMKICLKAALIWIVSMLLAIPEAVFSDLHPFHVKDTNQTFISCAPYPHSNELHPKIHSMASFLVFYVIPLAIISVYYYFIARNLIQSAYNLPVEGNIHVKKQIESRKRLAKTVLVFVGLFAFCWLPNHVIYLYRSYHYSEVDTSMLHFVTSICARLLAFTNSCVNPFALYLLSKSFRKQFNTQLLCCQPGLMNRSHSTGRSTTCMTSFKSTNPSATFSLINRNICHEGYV
Description: Binding affinity for the bombesin receptors on Swiss 3T3 fibroblasts. As to conditions: binding affinity on mouse Swiss 3T3 fibroblasts. The text has this: The binding affinity of the compounds of the present invention for the bombesin receptors has been determined on Swiss 3T3 fibroblasts (I. Zachary and E. Rozengurt (1985) Proc. Natl. Acad. Sci. USA, 82, 7616-7620) (Table 1).
In the case of “p-GRP: porcine gastrin releasing peptide (APVSVGGGTVLAKMYPRGNHWAVGHLM; ends and bridges not checked; UniProt P63153 24-50, looked up) [reference compound]”, the ID₅₀ is 17.6 ± 4.0 nM.

The molecule “Glp-Gln-Arg-Leu-Gly-Asn-Gln-Trp-Ala-Val-Gly-His-Leu-Met-NH₂ [BBS, reference compound]” had an ID₅₀ of 12.6 ± 3.8 nM.

Regarding “H-Thr-Gln-Trp-Ala-Val-Gly-His(Dnp)-Leu-Met-NH₂ . HCl (TQWAVGH; His(Dnp)-Leu-Met-NH2 extension; HCl salt; printed: Thr-Gln-Trp-Ala-Val-Gly-His) [XXII]”, the ID₅₀ is 5,800 ± 750 nM.

In the case of “Boc-Thr-Gln-Trp-Ala-Val-Gly-His(Dnp)-Leu-NH₂ (Boc-TQWAVG[His(Dnp)]L-NH2; SMILES CC(C)C[C@H](NC(=O)[C@H](Cc1cn(-c2ccc([N+](=O)[O-])cc2[N+](=O)[O-])cn1)NC(=O)CNC(=O)[C@@H](NC(=O)[C@H](C)NC(=O)[C@H](Cc1c[nH]c2ccccc12)NC(=O)[C@H](CCC(N)=O)NC(=O)[C@@H](NC(=O)OC(C)(C)C)[C@@H](C)O)C(C)C)C(N)=O) [XXXII]”, the ID₅₀ is listed as 770 ± 13 nM.

For the molecule “H-Thr-Gln-Trp-Ala-Val-Gly-His(Dnp)-leu-Met-NH₂ . HCl (H-TQWAVGH(Dnp); not fully specified (C-terminus); also: HCl salt) [XX]”, the ID₅₀ is 63,000 nM.

As for “H-Thr-Gln-Trp-Ala-Val-Gly-His(Dnp)-Leu-NH(CH₂)₄ CH₃.CF₃COOH (H-TQWAVG[His(Dnp)]L-{NH(CH2)4CH3}; also: TFA salt) [XXVII]”, the ID₅₀ is listed as 335 ± 101 nM.

Staying with this assay, now noted: binding affinity on mouse Swiss 3T3 fibroblasts; read-out: ID₅₀.
On to “TQWAVGLM-NH2 [XIX, HCl. H-Thr-Gln-Trp-Ala-Val-Gly-Leu-Met-NH₂]”, for which the IC50 was determined as 3400 nM.

For `CSCC[C@H](NC(=O)[C@H](CC(C)C)NC(=O)[C@@H](Cc1ccccc1)NC(=O)CNC(=O)[C@@H](NC(=O)[C@H](C)NC(=O)[C@H](Cc1c[nH]c2ccccc12)NC(=O)[C@H](CCC(N)=O)NC(=O)[C@@H](N)[C@@H](C)O)C(C)C)C(N)=O` [XVII, HCl.H-Thr-Gln-Trp-Ala-Val-Gly-phe-Leu-Met-NH₂] (H-TQWAVG[dF]LM-NH2), the IC50 was found to be 32500 nM.

In the case of `CC(C)C[C@H](NC(=O)[C@H](Cc1c[nH]cn1)NC(=O)CNC(=O)[C@@H](NC(=O)[C@H](C)NC(=O)[C@H](Cc1c[nH]c2ccccc12)NC(=O)[C@H](CCC(N)=O)NC(=O)[C@@H](NC(=O)OC(C)(C)C)[C@@H](C)O)C(C)C)C(N)=O` [XXXIII, Boc-Thr-Gln-Trp-Ala-Val-Gly-His-Leu-NH₂] (Boc-TQWAVGHL-NH2), the IC50 worked out at 556 ± 128 nM.

Regarding `CSCC[C@H](NC(=O)[C@H](CC(C)C)NC(=O)[C@H](Cc1c[nH]cn1)NC(=O)CNC(=O)[C@@H](NC(=O)[C@H](C)NC(=O)[C@H](Cc1c[nH]c2ccccc12)NC(=O)[C@H](CCC(N)=O)NC(=O)[C@@H](N)CC(N)=O)C(C)C)C(N)=O` [BBS(6-14)nonapeptide, reference compound], the IC50 was found to be 9.4 ± 3.1 nM.

With `CSCC[C@H](NC(=O)[C@H](CC(C)C)NC(=O)[C@@H](C)NC(=O)CNC(=O)[C@@H](NC(=O)[C@H](C)NC(=O)[C@H](Cc1c[nH]c2ccccc12)NC(=O)[C@H](CCC(N)=O)NC(=O)[C@@H](NC(=O)OC(C)(C)C)[C@@H](C)O)C(C)C)C(N)=O` [XXXIV, Boc-Thr-Gln-Trp-Ala-Val-Gly-ala-Leu-Met-NH₂] (Boc-TQWAVG[dA]LM-NH2), the IC50 was 18200 nM.

As to `CCCCCNC(=O)[C@H](CC(C)C)NC(=O)[C@H](Cc1c[nH]cn1)NC(=O)CNC(=O)[C@@H](NC(=O)[C@H](C)NC(=O)[C@H](Cc1c[nH]c2ccccc12)NC(=O)[C@H](CCC(N)=O)NC(=O)[C@@H](N)[C@@H](C)O)C(C)C` [XXVIII, H-Thr-Gln-Trp-Ala-Val-Gly-His-Leu-NH(CH₂)₄CH₃. 2CF₃COOH] (H-TQWAVGHL-NHPentyl), the IC50 was 76 ± 30 nM.

On to `CSCC[C@H](NC(=O)[C@H](CC(C)C)NC(=O)[C@@H](Cc1ccccc1)NC(=O)CNC(=O)[C@@H](NC(=O)[C@H](C)NC(=O)[C@H](Cc1c[nH]c2ccccc12)NC(=O)[C@H](CCC(N)=O)NC(=O)[C@@H](NC(=O)OC(C)(C)C)[C@@H](C)O)C(C)C)C(N)=O` [XVI, Boc-Thr-Gln-Trp-Ala-Val-Gly-phe-Leu-Met-NH₂] (Boc-TQWAVG[dF]LM-NH2), for which the IC50 turned out to be 19500 nM.

In the case of `CSCC[C@H](NC(=O)[C@@H](CC(C)C)NC(=O)[C@H](Cc1c[nH]cn1)NC(=O)CNC(=O)[C@@H](NC(=O)[C@H](C)NC(=O)[C@H](Cc1c[nH]c2ccccc12)NC(=O)[C@H](CCC(N)=O)NC(=O)[C@@H](N)[C@@H](C)O)C(C)C)C(N)=O` [XXI, H-Thr-Gln-Trp-Ala-Val-Gly-His-leu-Met-NH₂.CF₃COOH], the IC50 is 10000 nM.

With “KTQWAVGALM-NH2 [XXV, H-Lys-Thr-Gln-Trp-Ala-Val-Gly-Ala-Leu-Met-NH₂ . 2HCl]”, the IC50 was 970 ± 4 nM.

“RTQWAVGALM-NH2 [XXVI, H-Arg-Thr-Gln-Trp-Ala-Val-Gly-Ala-Leu-Met-NH₂. 2CF₃COOH]”: the IC50 was found to be 200 ± 60 nM.

Take `CSCC[C@H](NC(=O)[C@H](CC(C)C)NC(=O)CNC(=O)[C@@H](NC(=O)[C@H](C)NC(=O)[C@H](Cc1c[nH]c2ccccc12)NC(=O)[C@H](CCC(N)=O)NC(=O)[C@@H](NC(=O)OC(C)(C)C)[C@@H](C)O)C(C)C)C(N)=O` [XVIII, Boc-Thr-Gln-Trp-Ala-Val-Gly-Leu-Met-NH₂] (Boc-TQWAVGLM-NH2): the IC50 turned out to be 1000 nM.

As for “TQWAVGFLM-NH2 [XXIII, H-Thr-Gln-Trp-Ala-Val-Gly-Phe-Leu-Met-NH₂.CF₃COOH]”, the IC50 amounted to 4700 nM.

For “TQWAVGSLM-NH2 [XXIV, H-Thr-Gln-Trp-Ala-Val-Gly-Ser-Leu-Met-NH₂.CF₃COOH]”, the IC50 was determined as 590 ± 130 nM.
